Patent EP4620468A1, “BUTASELEN-CYCLODEXTRIN INCLUSION COMPLEX, PHARMACEUTICAL COMPOSITION, METHOD FOR PREPARING SAME, AND USE THEREOF” (Shanghai Yuanxi Medicine Corp., priority 2022, dated 2024)
In brackets after ≈: the same amount, converted by molar mass.

Key:
[1] = system: U87 brain glioma subcutaneous model; assay: Gavage administration experiment of U87 brain glioma subcutaneous model in Balb/c nude mice; assay type: in vivo; conditions: BS 90 mg/kg, oral administration (i.g., q.d.), 11 days
Experimental: After 2 days of animal acclimation, qualified animals were retained and randomized into 6 groups, with 7 animals in each group. Mice were inoculated subcutaneously in right axillas with U87 cells at 2×10^6/mouse. Administration was started to be performed 12 days after inoculation, which was day 0 of treatment. Administration was performed for a total of 11 days.
A drug treatment regimen was as follows: Blank control group (0.5% CMC-Na, i.g., q.d.); TMZ group (30 mg/kg, i.g., q.d.); BSL group (10 mg/kg, i.g., q.d.); BSM group (90 mg/kg, i.g., q.d.); BSH group (180 mg/kg, i.g., q.d.); and BSM+TMZ group (30 mg/kg of TMZ, 90 mg/kg of BS, i.g., q.d.).
The general condition of the animals and the time of tumor occurrence were recorded daily during the experiment, a long diameter and a short diameter of tumors in the mice were recorded daily, and a tumor volume was calculated according to a formula: long diameter×(short diameter)^2×0.5236, and a body weight of the animals were measured every 3 days. After 18 days of administration, anesthesia was performed with chloral hydrate, and eyeballs were removed for blood collection. […] Distribution of the Se content in brain tissue was detected by Inductively coupled plasma-Mass Spectrometry (ICP-MS).

[2] = Solubility of butaselen in water; assay type: physicochemical
[3] = Distribution of BS in brain tissue of ICR mice after intraperitoneal injection, ICP-MS; assay type: in vivo; conditions: female, mouse, ip, intraperitoneal injection 90 mg/kg
Experimental: The distribution of BS in mouse brain tissue was examined as follows: Brain glioma is located in the skull and has a special lesion location. Thus, it is critical whether a drug can cross the blood-brain barrier and act at the lesion site. In order to detect whether BS can reach brain tissue through the blood-brain barrier, female six-week-old ICR mice were selected for the study. The mice were intraperitoneally injected with 90 mg/kg of BS, and brain tissues before administration and brain tissues at 0.5 h, 1 h, 2 h and 3 h after administration were taken for ICP-MS detection. The BS content per gram of brain tissue was calculated by detecting the selenium content per gram of brain tissue.

[4] = system: U87 brain glioma subcutaneous model; assay: Administration by injection (intraperitoneal) experiment of U87 brain glioma subcutaneous model in Balb/c nude mice; assay type: in vivo
Text: After 2 days of animal acclimation, qualified animals were retained and randomized into 5 groups, with 6 animals in each group of a control group, a TMZ group, and a BS group. There were 5 animals in each group of the BS+TMZ treatment group and the BS+TMZ prevention group. Mice in the BS group were inoculated subcutaneously in right axillas with U87 cells at 2×10^6/mouse. Administration was started to be performed 14 days after inoculation, which was day 0 of treatment. Administration was performed for a total of 18 days.
A drug treatment regimen was as follows: Blank control group (0.9% NaCl, i.p., q.d.); TMZ group (10 mg/kg, i.p., qd.); BS group (30 mg/kg, i.p., q.d.); BS+TMZ treatment group (10 mg/kg of TMZ, i.p., qd., and 90 mg/kg of BS, i.g., q.d.); BS+TMZ prevention group (10 mg/kg of TMZ, i.p., qd., and 90 mg/kg of BS, i.g., q.d.). […] were injected into tail veins.
(§1) The general condition of the animals and the time of tumor occurrence were recorded daily during the experiment, a long diameter and a short diameter of tumors in the mice were recorded daily, and a tumor volume was calculated according to a formula: long diameter×(short diameter)^2×0.5236, and a body weight of the animals were measured every 3 days. After 18 days of administration, anesthesia was performed with chloral hydrate, and eyeballs were removed for blood collection. The mice were sacrificed, tumors, hearts, livers, spleens, lungs, kidneys, thymuses, whole brains, and intestines were rapidly isolated, blood stains were washed away with ice saline, the tumors, hearts, livers, spleens, lungs, kidneys, thymuses, whole brains, and intestines were wiped to be dry with filter paper, whether there were lesions in internal organs of the animals were observed, and the tumors, hearts, livers, spleens, lungs, kidneys, thymuses, whole brains, and intestines were weighed. A portion of tumor tissue was taken and stored in liquid nitrogen for RNA and protein extraction. Another portion of tumor tissue was placed in a tissue fixative solution for fixation. Distribution of the Se content in brain tissue was detected by Inductively coupled plasma-Mass Spectrometry (ICP-MS).
Female six-week-old Balb/c Nude mice were selected to establish an animal model and inoculated subcutaneously with U87 human-derived glioma cells at 2×10^6/mouse. Administration was started to be performed on day 14 after inoculation, and was continued to be performed for 18 days.
To compare the difference in efficacy between oral gavage administration and intraperitoneal injection administration, the control group, the TMZ group (10 mg/Kg) and the BS group (30 mg/Kg) were administered intraperitoneally once a day in this round of experiment. The mice in the control group were given 0.9% NaCl.
To compare the therapeutic efficacy and preventive efficacy of the combined application of BS and TMZ, combined administration groups were set in this round of experiment: a BS+TMZ treatment group (90 mg/Kg of BS&10 mg/Kg of TMZ) and a BS+TMZ prevention group (90 mg/Kg of B S& 10 mg/Kg of TMZ). The B S+TMZ treatment group was abbreviated as a BS+TMZ (A) group, and tumors with a volume of more than 20 mm^3 were normally formed in the mice on day 14 after U87 inoculation, and the administration was started to be performed to observe the efficacy of the combined use on inhibiting tumor proliferation. The BS+TMZ prevention group is abbreviated as a BS+TMZ (B) group, and tumors with a volume of less than 20 mm^3 were formed in the mice on day 14 after U87 inoculation, and the administration was started to observe the efficacy of the combined use on the prevention of tumor formation. The mice in the combined groups were administered by single daily oral gavage. The start time of administration was Day 1, a second day of administration was Day 2, and so on.

[5] = Body weight and clinical observation of NPG mice during administration; assay type: in vivo; conditions: BS 30 and 90 mg/kg, intraperitoneal injection
Experimental: All animals were observed once a day during the experiment period. The observation content included death or dying, feces, a feeding status, a mental status, and behavioral activities, etc. If any abnormal situation was found, it was recorded in time. All animals were weighed once before grouping, three times per week after administration, and once before euthanasia.
No clinical abnormal symptoms or animal deaths due to drug toxicity were observed during this experiment.

[6] = system: high-grade astrocytoma in human spinal cord; assay: Subcutaneous patient-derived xenograft (PDX) mouse model of high-grade astrocytoma in human spinal cord; assay type: in vivo, NPG mice; conditions: for tumor sizes at the end of the experiment: no unit at the values (tumor volume formula in mm^3), in mm³; for tumor volume inhibition rate: end of experiment
Experimental: • 1) Grouping of animals: the animals were subcutaneously inoculated with tumor tissue pieces, and after tumors were formed in the animals, the animals were grouped based on a principle of a similar mean tumor volume; • 2) Mode of administration: intraperitoneal injection of BS and TMZ (i.p., q.d.×17 days); • 3) Detection indexes: mouse body weight and subcutaneous tumor volume.
BS injections, with a drug content being 30 mg of BS and 90 mg of BS; and 1 mg of TMZ was weighed and dissolved in 1 ml of 0.5% CMC-Na and the obtained solution was uniformly dispersed by an ultrasound-assisted manner to obtain a TMZ drug solution, which was prepared immediately before use each time.
• Animal species: NPG mice, Animal grade: SPF grade, and Sex and number: female, 32 • Animal weight range: 20-25 g, Animal age range: 5-6 weeks old, and Animal source: Beijing Vitalstar Biotechnology Co., Ltd.
The animals were randomly divided into four groups according to Table 5, with 8 animals in each group of a control group, a BSL group, a BSH group and a TMZ group.
Tumor masses (2-3 mm^3) of high-grade astrocytoma in a human spinal cord were prepared and inoculated in right axillas of NPG mice, and after inoculation, a mouse status was routinely observed and the tumor size was measured. Screening was performed according to the tumor volume, animals with a tumor volume of 450 mm^3 were selected for the experiment, and those with an excessive tumor volume and no tumor formation were not selected. A total of 32 suitable tumor-bearing animals were screened for the experiment, and were divided into 4 experimental groups, with 8 mice in each group. The day of first administration was recorded as D1, a second day of administration was recorded as D2, and so on. All animals were administered through single daily intraperitoneal injection for 24 consecutive days.
During the experiment, a long diameter and a short diameter of the tumors in all the animals were measured daily. And a tumor volume (mm^3) was calculated and a formula was as follows: Tumor volume=0.5236×long diameter×short diameter×short diameter.

[7] = Body weight and general condition of U87 tumor-bearing nude mice during administration; assay type: in vivo, Balb/c nude mice
Experimental: as §1

[8] = Distribution of BS in brain tissue of U87 nude mice by ICP-MS (selenium content); assay type: in vivo; conditions: Balb/c nude, mouse, BS 30 mg/kg, injection dosage form (intraperitoneal), after the experiment, calculated from selenium content
Experimental: as §1, with “A portion of tumor tissue was taken and stored in liquid nitrogen for RNA and protein extraction. Another portion of tumor tissue was placed in a tissue fixative solution for fixation.” left out
Brain tissues of the mice after the experiment of BS+TMZ gavage (90+10 mg/kg) and BS intraperitoneal injection (30 mg/kg) were taken and detected by ICP-MS. By detecting the selenium content per gram of brain tissue, the BS content per gram of brain tissue was calculated. […]

[9] = BS 30 mg/kg, intraperitoneal injection, q.d., 18 days, end of experiment
[10] = BS 30 mg/kg, intraperitoneal, end of experiment
[11] = TMZ 10 mg/kg, intraperitoneal, experiment in this group ended early on day 12

O=c1c2ccccc2[se]n1CCCCn1[se]c2ccccc2c1=O [BS, butaselen]
Tumor volume (mm^3) [1]: 122.05±33.15 mm^3 | Volume inhibition rate (%) [1]: 78.87% | solubility [2]: ~0.15 µg/mL (≈ 0.333 µM) | concentration at 0.5 h ([3]; 0.5 h after administration): 439 ng/g | concentration at 1 h ([3]; 1 h after administration): 372 ng/g | concentration at 2 h ([3]; 2 h after administration (peak)): 528 ng/g | concentration at 3 h ([3]; 3 h after administration): 419 ng/g | Tumor volume (mm^3) [4, 9]: 105.18±66.62 mm^3 | Volume inhibition rate (%) [4, 9]: 81.12% | Tumor weight [4, 10]: 0.13 ± 0.08 g | Weight inhibition rate (%) [4, 10]: 66.67% | toxic and side effects on the NPG mice [5]: no obvious toxic and side effects | weight loss ([5]; NPG mice): no significant weight loss | tumor sizes at the end of the experiment ([6]; BS 30 mg/kg i.p. q.d.): 4593.83±2725.69 | tumor sizes at the end of the experiment ([6]; BS 90 mg/kg i.p. q.d.): 2999.76±2191.03 | tumor volume inhibition rate ([6]; high-dose BS group (90 mg/kg i.p.)): 35.19% | tumor volume inhibition rate ([6]; low-dose BS group (30 mg/kg i.p.)): -10.54% | toxic and side effects on tumor-bearing nude mice ([7]; BS group, BS+TMZ (A) and (B) groups, normal diet, activities, mental status): no obvious toxic and side effects | concentration at 18 days [8]: 121 ng/g

Cn1nnc2c(C(N)=O)ncn2c1=O [TMZ, temozolomide, reference compound]
Tumor volume (mm^3) [4, 11]: 343.23±245.20 mm^3 | Tumor weight [4, 11]: 0.19 ± 0.08 g | tumor sizes at the end of the experiment ([6]; TMZ 5 mg/kg i.p. q.d.): 2693.29±1682.23 | tumor volume inhibition rate ([6]; TMZ group (5 mg/kg i.p.)): 27.82% | body weight of the mice ([7]; TMZ group (30 mg/Kg as printed), U87 tumor-bearing nude mice, group ended on day 12): significantly decreased
